Measured values from US10889552B2, “Dihydroxybenzamide compound having HSP90 inhibitory activity or pharmaceutically acceptable salt thereof, and medical use thereof” (priority 2016, dated 2021).

What was measured:
[1] = tested on: H1975 cells; experiment: Cell viability by MTS analysis in H1975 cells resistant to Gefitinib; assay type: cell-based; settings: H1975, cultured for 3 days
Protocol: To confirm the cell viability according to the concentration of the compound synthesized in H1975 cells (ATCC) resistant to Gefitinib, MTS [3-(4,5-dimethylthiazol-2-yl)-5-[…]carboxymethoxyphenyl)-2-(4-sulfophenyl)-2H-terazolium, inner salt] analysis was performed. When the cells were cultured so as to occupy 80% of the bottom of the culture dish, the cells were detached and diluted with RPMI 1640 medium to a concentration of 1.5×10^3 cells/well. Each 100 μL of the suspension was added to each well of a 96-well plate and cultured for 14 hours.

[2] = tested on: H1975; experiment: Cell proliferation / survival inhibition by MTS analysis (H1975); assay type: cell-based; settings: for Inhibition rate at 10 μM (%) / Inhibition rate at 30 μM (%): test system not given
Protocol: Sk-Br3 (Korean cell line bank), a breast cancer cell, and H1975 cell (ATCC), a nonsmall cell lung cancer, were cultured in RPMI 1640 containing 25 mM HEPES (4-(2-hydroxyethyl)-1-piperazineethanesulfonic acid) and RPMI 1640 containing L-glutamine (containing streptomycin ([…]), penicillin (100 units/mL) and 10% fetal bovine serum (FBS)).
Next, non-metastatic lung cancer cells were treated with Compound 17 and the cell proliferation rate or cell survival rate was measured by MTS [3-(4,5-dimethylthiazol-2-yl)-5-(3-carboxymethoxyphenyl)-1-2H-tetrazolium, inner salt] analysis.
Cells were dispensed in 96-well plates at 3000 cell/well (Sk-Br3) and 2000 cell/well (H1975), and 100 μL of the medium was added per well and then was incubated overnight.
Cell proliferation was evaluated using the Promega Cell Titer 96 Aqueous One Solution cell proliferation assay.
After compound and cell culture, 20 μL of assay substrate solution was added to each well and incubated at 37° C. for an additional 1 hour.
Cell proliferation was confirmed by measuring the absorbance at 490 nm using a microplate reader (Tecan Infinite F200 Proplate reader).

[3] = Log P; assay type: physicochemical; settings: text: measured values of Log P
Protocol: All experimental data were analyzed using Prism software (version 5.0, Graphpad Software, San Diego, Calif.). In addition, tPSA (Topological Polar Surface Area) calculated using Cherndraw software and the measured values of Log P are shown in Tables 1 and 2 below.

[4] = tested on: H1975 cells; experiment: H1975 colony formation inhibitory effect (clonogenic assay); assay type: cell-based; settings: at 0.05 µM), 3 weeks, FIG. 3
Protocol: H1975 cells were treated with Compound 17 at a concentration of 0.05 or 0.5 μM for 3 weeks and then clogenic assay was performed.
First, RPMI1640 medium (10% FBS, 0.48% agar) was added to a 6-well plate and hardened, and then, 10000 cells (H1975) were dispensed in a medium containing RPMI1640 medium (10% FBS, 0.33% agar) and solidified. After solidification, the cells were treated with compound at a concentration of 0.05 or 0.5 […] for 24 hours, followed by culturing for 3 weeks, and then colony formation was confirmed using a crystal violet staining solution.

[5] = tested on: HSP90 client protein of EGFR, Her2, Met, Akt, c-Raf, Cpk4; experiment: Protein expression analysis (western blot) after Compound 17 treatment; assay type: cell-based; settings: 0.05, 0.1, 0.5 or 1 μM, 24 hours, FIG. 4
Protocol: Next, the cells were dispensed into 100 mm culture dishes (1×10^6/dish) and adhered to the bottom surface overnight. Compound 17 at a concentration of 0.05, 0.1, 0.5 or 1 μM was added to the cells, followed by further culture for 24 hours.
In addition, cells were treated with DMSO (1%) or geladinamycin (1 μM) as a control and cultured for 24 hours.
The cultured cells were harvested and lysed in ice-cold lysis buffer (23 mM Tris-HCl pH 7.6, 130 mM NaCl, 1% NP40, […], 0.1% SDS (sodium dodecylsulfate)), and 30 μg of the lysate was separated by SDS-PAGE (SDS-polyacrylamide gel electrophoresis) and transferred to a PVDF membrane (Bio-Rad).
Membranes were blocked with TBST (Tween 20 containing iris-Buffered Saline) containing 5% skim milk and incubated with the respective primary antibodies [EGFR (Epidermal growth factor receptor), Her2 (human epidermal growth factor receptor type 2), Met, N-cadherin, E-cadherin, α-tubulin, acetyl-α-tubulin, protein kinase B (Akt), c-Raf, Cdk4 (Cyclin-dependent kinase 4), HSP90, HSP70, PARP (Poly […] Polymerase), caspase 3, cleaved caspase 3, truncated caspase 8, B-cell lymphoma 2 (Bcl-2). Bax or β-Actin, purchased from Cell Signaling Technology (USA)].
After binding to a secondary antibody conjugated with horseradish peroxidase, the protein was visualized by ECL (electrochemiluminescence, GE healthcare, USA).

[6] = tested on: HSP90 client protein (Her2, EGFR, Met, c-Raf, Akt), HSP70; experiment: Analysis of protein expression (western blot) in H1975 cells, Compound 21f; assay type: cell-based
Protocol: Compound 21f having good efficacy was selected and HSP90 client protein proliferation effect in the same cell line was confirmed, in which the HSP90 client proteins were Her2 (human EGFR-related 2), EGFR (epidermal growth factor receptor), Met and c-Raf were used.
H1975 cells resistant to Gefitinib were cultured in a medium supplemented with 10% fetal bovine serum (FBS) for 24 hours, and the cells were detached, harvested and diluted with a RPMI 1640 medium so as to be 5×10^5 cells/well. Each 5 mL of the suspension was added to […] culture dish and cultured for 24 hours. Then, the medium was changed to the culture solution treated with each compound of concentration (21f 0, 0.05, 0.1, 0.5 or 1 μM, GA: 1 μM), and cultured for 24 hours. After culture, the cells were harvested and centrifuged at 1300 rpm for 5 minutes at 4° C., and the supernatant was removed. The pellet was washed with phosphate buffered saline, centrifuged once again under the same conditions, and the supernatant was removed. Lysis buffer was added to the remaining pellet and lysed by vortexing at 5 minute intervals for 30 minutes. The supernatant was separated by centrifugation at 16000 rcf for 4 minutes at 4° C., and proteins were quantified using BCA ([…]) kit. SDS-PAGE (sodium dodecylsulfate-polyacrylamide gel electrophoresis) was performed using 10, 12% running gel and 4% stacking gel (10 mA per gel). The separated proteins were transferred to an immunoblot PVDF, membrane (polyvinylidene fluoride membrane) at 100 V for 75 minutes. The membranes were blocked with 5% skim milk solution for 2 hours and then added a primary antibody diluted in the ratio of 1:750-1,000 in 0.1% tween-20 solution and reacted at 4° C. for 12 hours. After washing three times with TBS-T (Tris-buffered saline and Tween 20 containing Tween 20) and detected with an image analyzer using ECL (enhanced chemiluminescence) solution.

Work on “5-chloro-2,4-dihydroxy-n-methyl-n-(2-methylbenzyl)benzamide [Compound 16a]” yielded an EC50 [1] of 49.3 µM.
For “5-chloro-2,4-dihydroxy-n-methyl-n-(3-methylbenzyl)benzamide [Compound 14i]”, the EC50 [1] was 47.5 µM.
In the case of O=C(c1cc(Cl)c(O)cc1O)N1CCCCC1 [Compound 11b], the “Inhibition rate at 10 μM (%)” value [2] was 7.6%, the “Inhibition rate at 30 μM (%)” value [2] was 26.3% and the LogP [3] was 1.69.
With CC(=O)N1CCN(C(=O)c2cc(Cl)c(O)cc2O)CC1 [Compound 11f, 1-(4-(5-chloro-2,4-dihydroxybenzol)piperazin-1-yl)ethanone] the “Inhibition rate at 10 μM (%)” value [2] was 0%, the “Inhibition rate at 30 μM (%)” value [2] was 10.5% and the LogP [3] was 0.25.
Work on COc1ccc(CN(C)C(=O)c2cc(Cl)c(O)cc2O)cc1 [Compound 14c, 5-chloro-2,4-dihydroxy-n-(4-methoxybenzyl)-n-methylbenzamide] yielded an EC50 [1] of 16.7 µM.
With COc1ccc(CN(C)C(=O)c2cc(Cl)c(O)cc2O)cc1OC [Compound 14d, 5-chloro-n-(3,4-dimethoxybenzyl)-2,4-dihydroxy-n-methylbenzamide] the EC50 [1] was 33.4 µM.
Compound COc1cc(CN(C)C(=O)c2cc(Cl)c(O)cc2O)c(Cl)c(OC)c1OC [Compound 14g, 5-chloro-n-(2-chloro-3,4,5-trimethoxybenzyl)-2,4-dihydroxy-n-methylbenzamide] has an EC50 [1] of 33.8 µM.
With Cc1ccc(CN(C)C(=O)c2cc(Cl)c(O)cc2O)cc1 [Compound 16b, 5-chloro-2,4-dihydroxy-n-methyl-n-(4-methylbenzyl)benzamide] the EC50 [1] was 34.3 µM.
For CC(C)c1cc(C(=O)N2CCN(C)CC2c2ccccc2)c(O)cc1O (centres unmarked) [Compound 17, (2,4-dihydroxy-5-isopropylphenyl)(4-methyl-2-phenylpiperazin-1-yl)methanone], the “proliferation rate of the cells” value ([2]; 0-70 μM, 1, 2 and 3 days, FIG. 2A) was “inhibited in a concentration-dependent manner”, the “colony formation of H1975” value [4] was “inhibited the colony formation” and the “HSP protein inhibition / degradation of HSP90 client protein” value [5] was “inhibited HSP protein in concentration-dependent manner”.
With CCNC(=O)c1ccc(CN(C)C(=O)c2cc(Cl)c(O)cc2O)cc1 [Compound 21b, 5-chloro-n-(4-(ethylcarbamoyl)benzyl)-2,4-dihydroxy-n-methylbenzamide] the EC50 [1] was 21.7 µM.
Work on CCCNC(=O)c1ccc(CN(C)C(=O)c2cc(Cl)c(O)cc2O)cc1 [Compound 21c, 5-chloro-2,4-dihydroxy-n-methyl-n-(4-(propylcarbamoyl)benzyl)benzamide] yielded an EC50 [1] of 20.8 µM.
In the case of CCCNC(=O)c1ccc(CN(C)C(=O)c2cc(C(C)C)c(O)cc2O)cc1 [Compound 21f, 2,4-dihydroxy-5-isopropyl-n-methyl-n-(4-(propylcarbamoyl)benzyl) benzamide], the “proliferation (expression) of the HSP90 client protein” value ([6]; 0, 0.05, 0.1, 0.5 or 1 μM, 24 hours, FIG. 5) was “inhibited in a concentration-dependent manner”, the “concentration at which Akt expression was significantly decreased” value ([6]; H1975, 24 hours) was 0.5 µM and the “concentration at which EGFR expression was significantly decreased” value ([6]; H1975, 24 hours) was 0.1 µM. For the same compound, the “concentration at which Her2 expression was significantly decreased” value ([6]; H1975, 24 hours) was 0.5 µM, the “concentration at which Met expression was significantly decreased” value ([6]; H1975, 24 hours) was 0.5 µM and the “concentration at which expression of HSP70 was increased” value ([6]; H1975, 24 hours) was 0.5 µM.
